*1 amine or outer side, *2 acyl side, *3 side chain or, on linkers, in order; H or OH if unused. Where a SMILES comes first, the peptide text is derived from it. [ ]: non-standard residue; d: D form. Nva(5,5,5-F3) = N[C@@H](CCC(F)(F)F)C(=O)O; X1 = O=C([C@@H](CCC(F)(F)F)N[*:1])[*:2]; X2 = O=C([C@H](CCCC(F)(F)F)N[*:1])[*:2]; NMeF = CN[C@@H](Cc1ccccc1)C(=O)O
Columns and labels:
Mus musculus = test: In vivo analgesic activity of fluoro-enkephalin analog was determined against the compound at 10E-9 M/mouse; i.c.v.; type: functional
[1] = target: Delta-type opioid receptor (Rattus norvegicus, UniProt P33533); test: Compound was evaluated for its binding affinity against enkephalin delta receptor using [3H]DPDPE as ligand in rat cerebrum in vitro
Mu-type opioid receptor = Mu-type opioid receptor (Rattus norvegicus, UniProt P33535); test: Compound was evaluated for its binding affinity against enkephalin mu receptor using [3H]PL-017 as ligand in rat cerebrum in vitro
[2] = target: Kappa-type opioid receptor (Cavia porcellus, UniProt P41144); test: Compound was evaluated for its binding affinity against enkephalin kappa receptor using [3H]U-69593 as ligand in guinea pig cerebrum in vitro
Chain of Kappa-type opioid receptor (P41144 whole entry): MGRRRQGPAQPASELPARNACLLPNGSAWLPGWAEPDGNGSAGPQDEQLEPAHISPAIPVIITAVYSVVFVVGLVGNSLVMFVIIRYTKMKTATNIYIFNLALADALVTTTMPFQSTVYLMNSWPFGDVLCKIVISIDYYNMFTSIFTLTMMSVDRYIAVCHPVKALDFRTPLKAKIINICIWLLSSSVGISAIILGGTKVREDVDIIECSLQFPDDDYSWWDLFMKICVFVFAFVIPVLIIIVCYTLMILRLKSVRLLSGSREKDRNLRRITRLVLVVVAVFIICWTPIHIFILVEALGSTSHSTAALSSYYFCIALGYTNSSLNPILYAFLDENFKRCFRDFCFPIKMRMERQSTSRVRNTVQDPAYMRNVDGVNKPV

Chain of Mu-type opioid receptor (P33535 whole entry): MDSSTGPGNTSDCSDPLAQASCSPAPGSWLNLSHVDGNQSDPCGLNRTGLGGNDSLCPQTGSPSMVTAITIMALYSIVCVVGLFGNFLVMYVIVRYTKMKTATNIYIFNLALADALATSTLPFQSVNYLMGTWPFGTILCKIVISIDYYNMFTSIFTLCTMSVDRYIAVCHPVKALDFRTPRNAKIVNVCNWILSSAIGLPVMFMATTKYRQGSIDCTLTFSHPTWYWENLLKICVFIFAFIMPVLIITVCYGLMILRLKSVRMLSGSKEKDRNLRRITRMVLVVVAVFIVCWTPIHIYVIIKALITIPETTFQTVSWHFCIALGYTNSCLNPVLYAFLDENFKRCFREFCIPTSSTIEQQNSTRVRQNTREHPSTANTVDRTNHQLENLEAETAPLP
Chain of Delta-type opioid receptor (P33533 whole entry): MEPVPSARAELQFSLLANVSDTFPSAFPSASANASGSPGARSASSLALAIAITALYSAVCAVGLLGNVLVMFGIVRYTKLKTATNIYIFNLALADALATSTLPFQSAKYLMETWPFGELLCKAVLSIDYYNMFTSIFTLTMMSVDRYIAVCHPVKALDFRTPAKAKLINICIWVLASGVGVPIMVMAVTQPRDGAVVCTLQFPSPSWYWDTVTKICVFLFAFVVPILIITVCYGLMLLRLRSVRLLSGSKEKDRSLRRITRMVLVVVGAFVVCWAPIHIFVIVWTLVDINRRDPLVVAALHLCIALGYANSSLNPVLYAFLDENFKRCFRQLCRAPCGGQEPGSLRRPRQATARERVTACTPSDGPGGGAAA

| Compound | ED50 (Mus musculus) [M mouse-1] | also measured |
| --- | --- | --- |
| CSCC[C@H](NC(=O)[C@H](Cc1ccccc1)NC(=O)CNC(=O)CNC(=O)[C@@H](N)Cc1ccc(O)cc1)C(=O)O | 7e-07 | – |
| CCC[C@@H](NC(=O)[C@@H](N)Cc1ccc(O)cc1)C(=O)NCC(=O)N[C@@H](Cc1ccccc1)C(=O)N[C@@H](CCSC)C(N)=O | 4e-11 | – |
| CSCC[C@H](NC(=O)[C@H](Cc1ccccc1)NC(=O)[C@H](CCC(F)(F)F)NC(=O)CNC(=O)[C@@H](N)Cc1ccc(O)cc1)C(N)=O (H-YG[Nva(5,5,5-F3)]FM-NH2) | 2.2e-08 | – |
| CSCC[C@H](NC(=O)[C@H](Cc1ccccc1)NC(=O)[C@H](CCC(F)(F)F)NC(=O)CNC(=O)[C@@H](N)Cc1ccc(O)cc1)C(=O)O (H-YG[Nva(5,5,5-F3)]FM-OH) | 1.4e-07 | – |
| CSCC[C@H](NC(=O)[C@H](Cc1ccccc1)NC(=O)[C@@H](CCC(F)(F)F)NC(=O)CNC(=O)[C@@H](N)Cc1ccc(O)cc1)C(N)=O (H-YG[X1]FM-NH2) | 1.2e-08 | – |
| CSCC[C@H](NC(=O)[C@H](Cc1ccccc1)NC(=O)CNC(=O)[C@H](CCC(F)(F)F)NC(=O)[C@@H](N)Cc1ccc(O)cc1)C(N)=O (H-Y[Nva(5,5,5-F3)]GFM-NH2) | 7e-12 | IC50 [1]: 2 nM; IC50 (Mu-type opioid receptor): 0.5 nM; IC50 [2]: 400 nM |
| CSCC[C@H](NC(=O)[C@H](Cc1ccccc1)N(C)C(=O)CNC(=O)[C@H](CCC(F)(F)F)NC(=O)[C@@H](N)Cc1ccc(O)cc1)C(N)=O (H-Y[Nva(5,5,5-F3)]G[NMeF]M-NH2) | 2e-12 | – |
| CSCC[C@H](NC(=O)[C@H](Cc1ccccc1)NC(=O)CNC(=O)[C@@H](CCC(F)(F)F)NC(=O)[C@@H](N)Cc1ccc(O)cc1)C(N)=O (H-Y[X1]GFM-NH2) | 2.5e-08 | – |
| CSCC[C@H](NC(=O)[C@H](Cc1ccccc1)NC(=O)CNC(=O)[C@@H](CCC(F)(F)F)NC(=O)[C@@H](N)Cc1ccc(O)cc1)C(=O)O (H-Y[X1]GFM-OH) | 1.2e-07 | – |
| CSCC[C@H](NC(=O)[C@H](Cc1ccccc1)NC(=O)CNC(=O)[C@H](CCCC(F)(F)F)NC(=O)[C@@H](N)Cc1ccc(O)cc1)C(N)=O (H-Y[X2]GFM-NH2) | 7e-11 | – |
| CN1CC[C@]2(C)CC(Cc3ccc(O)cc32)C1 (single isomer, unassigned) [EPTAZOCINE] | 5e-11 | – |
| CN1CC[C@]23c4c5ccc(O)c4O[C@H]2[C@@H](O)C=C[C@H]3[C@H]1C5.Cl [MORPHINE HYDROCHLORIDE] | 7e-11 | – |
